How the values were obtained:
[1] = tested on: NPC Chinese Hamster Ovary (CHO) cells; test: Relative lysosomal volume via LysoTracker in NPC CHO cells; type: cell-based; settings: 1 mM, 72 hours, p <0.01 versus untreated NPC1-null, FIG. 1
Procedure: NPC Chinese Hamster Ovary (CHO) cells were treated in vitro for 72 hours with 1 mM of acetyl-DL-leucine, acetyl-L-leucine, acetyl-D-leucine, DL-leucine, L-leucine, and D-leucine, respectively. Relative lysosomal volume was quantified via LysoTracker.
Data presented in FIG. 1 show the results for each treatment, with lysosomal volume expressed as fold change relative to untreated wild-type […]. The asterisks (**) indicate a p-values of <0.01 versus untreated NPC1-null.

cerebellar ataxia = settings: patients with cerebellar ataxia (Schniepp 2015); cited from earlier work
[2] = tested on: Niemann-Pick Type C (NPC); settings: 12 patients with NPC (Bremova 2015); cited from earlier work
cerebellar symptoms = settings: cited from earlier work
vertigo = settings: cited from earlier work
[3] = tested on: ataxia of different etiologies; settings: patients with ataxia, responders (Becker-Bense 2015); cited from earlier work
[4] = tested on: Migraine and Vestibular Migraine; test: Case study Example 4: Tanganil for migraine and vestibular migraine; type: in vivo, human; settings: before treatment with Tanganil
Source text: Patient Details: • Sex: […] • Six tablets of Tanganil® per day: two in the morning, two at noon and two in the evening for one week; thereafter, ten tablets of Tanganil® per day: four in the morning, three at noon and three in the evening. Tanganil® tablets as described in Example 1.

Migraine with Aura = test: Case study Example 3: Tanganil for migraine with aura; type: in vivo, human; settings: 600 mg taken once a week; before treatment with Tanganil
[5] = tested on: acute unilateral labyrinthectomy; settings: rat, by activation of the vestibulo-cerebellum and deactivation of the posterolateral thalamus (Gunther 2015); cited from earlier work

| Structure (SMILES) | lysosomal volume (LysoTracker), fold change relative to untreated wild-type [1] | improvement of attacks of migraine headache with pain medication [4] | also measured |
| --- | --- | --- | --- |
| CC(C)CC(N)C(=O)O (racemic) [DL-leucine] | significantly reduced |  |  |
| CC(=O)NC(CC(C)C)C(=O)O (racemic) [acetyl-DL-leucine] | significantly reduced |  | gait variability (cerebellar ataxia): improves gait variability; ataxia [2]: significant improvement in ataxia; benefit in cerebellar patients (cerebellar symptoms; another case series (Pelz 2015)): did not find benefit; cerebellar symptoms (cerebellar symptoms; case series (Strupp 2013)): improvement of cerebellar symptoms; cases with improvement in vertigo symptomology (vertigo; clinical results reported by various authors, including disappearance of vertigo attacks): more than 95 % of cases; safety profile (vertigo; used in France to treat acute vertigo since 1957): excellent safety profile; brain metabolism (PET) [3]: increased metabolism in the midbrain and lower brainstem |
| CC(=O)Oc1ccccc1C(=O)O [Aspirin] |  | no improvement |  |
| CC(C)C[C@@H](N)C(=O)O [D-leucine] | significantly reduced |  |  |
| CC(C)Cc1ccc(C(C)C(=O)O)cc1 (stereo not drawn) [Ibuprofen] |  | no improvement | response of headache attacks (Migraine with Aura): responding |
| CC(C)C[C@H](N)C(=O)O [L-leucine] | significantly reduced |  |  |
| Cc1c(N(C)CS(=O)(=O)[O-])c(=O)n(-c2ccccc2)n1C.[Na+] [Novalgin] |  | improvement |  |
| CC(=O)N[C@H](CC(C)C)C(=O)O [acetyl-D-leucine] | significantly reduced |  |  |
| CC(=O)N[C@@H](CC(C)C)C(=O)O [acetyl-L-leucine] | significantly reduced |  | effect on postural compensation [5]: significant effect |

— patent US11471434B2, “Treatment for migraine” (INTRABIO LTD., priority 2017, dated 2022)
